From paper PMC5351967, “Blue-light induced accumulation of reactive oxygen species is a consequence of the Drosophila cryptochrome photocycle” (PLoS ONE, 2017)

Target: T1, DmCry (Drosophila melanogaster, UniProt O77059)
T1 construct: gene cry
Test: UV-visible absorption spectroscopy of protein-bound flavin, photoreduction and dark reoxidation
Format: binding
Settings: co-purified cofactor; 50 mM phosphate pH 7.5, 10 mM beta-mercaptoethanol, 21 °C; blue light

T1 sequence (O77059 whole entry): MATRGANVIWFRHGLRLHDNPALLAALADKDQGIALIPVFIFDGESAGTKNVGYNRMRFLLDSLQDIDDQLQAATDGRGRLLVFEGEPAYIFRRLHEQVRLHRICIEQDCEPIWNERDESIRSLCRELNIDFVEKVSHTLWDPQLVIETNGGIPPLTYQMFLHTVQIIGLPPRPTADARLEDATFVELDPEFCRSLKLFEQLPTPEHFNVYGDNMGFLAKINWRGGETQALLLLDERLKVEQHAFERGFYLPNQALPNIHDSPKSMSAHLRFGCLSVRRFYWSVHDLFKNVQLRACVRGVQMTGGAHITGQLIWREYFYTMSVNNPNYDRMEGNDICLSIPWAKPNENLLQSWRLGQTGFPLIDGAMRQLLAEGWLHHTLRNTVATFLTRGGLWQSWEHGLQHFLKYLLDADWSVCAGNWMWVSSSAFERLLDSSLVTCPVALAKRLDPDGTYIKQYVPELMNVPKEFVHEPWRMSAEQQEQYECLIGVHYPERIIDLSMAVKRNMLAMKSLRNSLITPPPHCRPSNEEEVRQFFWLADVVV

Cc1cc2nc3c(=O)[nH]c(=O)nc-3n(C[C@H](O)[C@H](O)[C@H](O)COP(=O)(O)OP(=O)(O)OC[C@H]3O[C@@H](n4cnc5c(N)ncnc54)[C@H](O)[C@@H]3O)c2cc1C [FAD]
UV-visible absorption spectroscopy of protein-bound flavin, photoreduction and d: Flavin reduction to the anionic radical (FAD^•-) redox form could then be observed
